Results: patent publication US8163793B2, “Proline derivatives” (Hoffman-La Roche Inc., priority 2009, dated 2012)
Counter-ions that a name gives are not always drawn.

Key:
[1] = biological target: Cat L (UniProt P07711); test: Cathepsin enzyme inhibition assay (fluorogenic peptide substrate Z-Val-Val-Arg-AMC), Cathepsin L; assay type: biochemical, human and mouse; settings: enzyme 1 nM, substrate 20 μM, pH 6.5; read-out: CatL IC50
Procedure, shortened: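 Fluorogenic cleavage of Z-Val-Val-Arg-AMC (20 μM) by 1 nM Cat L was monitored at ex 360/em 465 nm for 20 min, the linear phase. The buffer was 100 mM potassium phosphate pH 6.5 with 5 mM EDTA and DTT. IC50 values were derived by standard methods, in μM.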

[2] = biological target: Cathepsin S (UniProt P25774); test: Cathepsin enzyme inhibition assay (fluorogenic peptide substrate Z-Val-Val-Arg-AMC), Cathepsin S; assay type: biochemical, human and mouse; settings: enzyme 1 nM, substrate 20 μM, pH 6.5; read-out: CatS IC50
Procedure, shortened: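 Compounds were combined with 1 nM human or mouse enzyme, and substrate then started the reaction. The buffer was potassium phosphate (100 mM, pH 6.5) containing EDTA-Na 5 mM, Triton X-100 0.001% and […] 5 mM.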

| SMILES | IC50 [1] | IC50 [2] |
| --- | --- | --- |
| CC(C)N1CCN(c2ccc(S(=O)(=O)[C@@H]3C[C@@H](C(=O)NC4(C#N)CC4)N(C(=O)C4(C(F)(F)F)CC4)C3)c(Cl)c2)CC1 [Example 293, (2S,4R)-4-[2-Chloro-4-(4-isopropyl-piperazin-1-yl)-benzenesulfonyl]-1-(1-trifluoromethyl-cyclopropanecarbonyl)-pyrrolidine-2-carboxylic acid (1-cyano-cyclopropyl)-amide] | 1400 nM | 0.18 nM |
| CC1(C(=O)N2C[C@H](S(=O)(=O)c3ccc(F)cc3C(F)(F)F)C[C@H]2C(=O)NC2(C#N)CC2)CC1 [Example 344, (2S,4R)-4-(4-Fluoro-2-trifluoromethyl-benzenesulfonyl)-1-(1-methyl-cyclopropanecarbonyl)-pyrrolidine-2-carboxylic acid (1-cyano-cyclopropyl)-amide] | ≥ 25000 nM | 0.54 nM |
| CC1(C(=O)N2C[C@H](S(=O)(=O)c3ccc(C4CC4)cc3C(F)(F)F)C[C@H]2C(=O)NC2(C#N)CC2)CC1 [Example 271, (2S,4R)-4-(4-Cyclopropyl-2-trifluoromethyl-benzenesulfonyl)-1-(1-methyl-cyclopropanecarbonyl)-pyrrolidine-2-carboxylic acid (1-cyano-cyclopropyl)-amide] | 85600 nM | 1.75 nM |
| CC(C)(C)OC(=O)N1C[C@H](S(=O)(=O)c2ccc(OC3COC3)cc2Cl)C[C@H]1C(=O)NC1(C#N)CC1 [Example 174, (2S,4R)-4-[2-Chloro-4-(oxetan-3-yloxy)-benzenesulfonyl]-2-(1-cyano-cyclopropylcarbamoyl)-pyrrolidine-1-carboxylic acid tert.-butyl ester] | 41500 nM | 3.3 nM |
| N#CC1(NC(=O)[C@@H]2C[C@@H](S(=O)(=O)c3ccccc3Cl)CN2C(=O)C2(c3ccncc3)CC2)CC1 [Example 285, (2S,4R)-4-(2-Chloro-benzenesulfonyl)-1-(1-pyridin-4-yl-cyclopropanecarbonyl)-pyrrolidine-2-carboxylic acid (1-cyano-cyclopropyl)-amide] | 2600 nM | 0.227 nM |
| COCCN1C[C@H](S(=O)(=O)c2ccccc2C(F)(F)F)C[C@H]1C(=O)NC1(C#N)CC1 [Example 110, (2S,4R)-1-(2-Methoxy-ethyl)-4-(2-trifluoromethyl-benzenesulfonyl)-pyrrolidine-2-carboxylic Acid (1-cyano-cyclopropyl)-amide] | ≥ 25000 nM | 60.5 nM |
| CN1C[C@H](S(=O)(=O)c2ccccc2Cl)C[C@H]1C(=O)NC1(C#N)CC1 [Example 93, (2S,4R)-4-(2-Chloro-benzenesulfonyl)-1-methyl-pyrrolidine-2-carboxylic acid (1-cyano-cyclopropyl)-amide] | ≥ 25000 nM | 966 nM |
| N#CC1(NC(=O)[C@H]2CC(S(=O)(=O)c3ccc(OCC(F)(F)F)cc3Cl)CN2)CC1 (stereo partly drawn) [Example 173, (R)-4-[2-Chloro-4-(2,2,2-trifluoro-ethoxy)-benzenesulfonyl]-pyrrolidine-2-carboxylic acid (1-cyano-cyclopropyl)-amide] | 27300 nM | 5.9 nM |
| CC(C)(C)OC(=O)N1C[C@H](S(=O)(=O)c2ccc(Cl)cc2OCC(F)(F)F)C[C@H]1C(=O)NC1(C#N)CC1 [Example 221, (2S,4R)-4-[4-Chloro-2-(2,2,2-trifluoro-ethoxy)-benzenesulfonyl]-2-(1-cyano-cyclopropylcarbamoyl)-pyrrolidine-1-carboxylic acid tert-butyl ester] | ≥ 25000 nM | 130 nM |
| N#CC1(NC(=O)[C@@H]2C[C@@H](S(=O)(=O)c3ccc(OCC(F)(F)F)cc3Cl)CN2C(=O)Cc2ccc(Cl)cc2)CC1 [Example 244, (2S,4R)-1-[2-(4-Chloro-phenyl)-acetyl]-4-[2-chloro-4-(2,2,2-trifluoro-ethoxy)-benzenesulfonyl]-pyrrolidine-2-carboxylic acid (1-cyano-cyclopropyl)-amide] | 5900 nM | 3.15 nM |
| N#CCNC(=O)[C@@H]1C[C@@H](S(=O)(=O)c2ccccc2C(F)(F)F)CN1C(=O)C1CCOCC1 [Example 68, (2S,4R)-1-(Tetrahydro-pyran-4-carbonyl)-4-(2-trifluoromethyl-benzenesulfonyl)-pyrrolidine-2-carboxylic acid cyanomethyl-amide] | ≥ 25000 nM | 0.3 nM |
| N#CC1(NC(=O)[C@@H]2C[C@@H](S(=O)(=O)c3ccc(OCC(F)(F)F)cc3Cl)CN2C(=O)C2(c3cccc(C(F)(F)F)c3)CC2)CC1 [Example 311, (2S,4R)-4-[2-Chloro-4-(2,2,2-trifluoro-ethoxy)-benzenesulfonyl]-1-[1-(3-trifluoromethyl-phenyl)-cyclopropanecarbonyl]-pyrrolidine-2-carboxylic acid (1-cyano-cyclopropyl)-amide] | 745 nM | 0.155 nM |
| N#CC1(NC(=O)[C@@H]2C[C@@H](S(=O)(=O)c3ccccc3C(F)(F)F)CN2c2nc(Cl)ns2)CC1 [Example 405, (2S,4R)-1-(3-Chloro-[1,2,4]thiadiazol-5-yl)-4-(2-trifluoromethyl-benzenesulfonyl)-pyrrolidine-2-carboxylic acid (1-cyano-cyclopropyl)-amide] | ≥ 25000 nM | 0.935 nM |
| CC(C)(C(=O)N1C[C@H](S(=O)(=O)c2ccccc2Cl)C[C@H]1C(=O)NC1(C#N)CC1)c1ccc(Cl)cc1 [Example 282, (2S,4R)-4-(2-Chloro-benzenesulfonyl)-1-[2-(4-chloro-phenyl)-2-methyl-propionyl]pyrrolidine-2-carboxylic acid (1-cyano-cyclopropyl)-amide] | 270 nM | 0.24 nM |

More lines, now with the values ahead:

| IC50 [1] | IC50 [2] | SMILES |
| --- | --- | --- |
| 5450 nM | 0.295 nM | N#CC1(NC(=O)[C@@H]2C[C@@H](S(=O)(=O)c3ccccc3Cl)CN2C(=O)Cc2ncc(Cl)cn2)CC1 [Example 414, (2S,4R)-4-(2-Chloro-benzenesulfonyl)-1-[2-(5-chloro-pyrimidin-2-yl)-acetyl]-pyrrolidine-2-carboxylic acid (1-cyano-cyclopropyl)-amide] |
| 2620 nM | 0.3 nM | N#CC1(NC(=O)[C@@H]2C[C@@H](S(=O)(=O)c3ccc(N4CCNCC4)cc3Cl)CN2C(=O)C2(C(F)(F)F)CC2)CC1 [Example 163, (2S,4R)-4-(2-Chloro-4-piperazin-1-yl-benzenesulfonyl)-1-(1-trifluoromethyl-cyclopropanecarbonyl)-pyrrolidine-2-carboxylic acid (1-cyano-cyclopropyl)-amide formiate] |
| 27000 nM | 12 nM | Cc1cc(N2C[C@H](S(=O)(=O)c3ccccc3)C[C@H]2C(=O)NC2(C#N)CC2)n(-c2ccc(C(F)(F)F)cc2)n1 [Example 261, (2S,4R)-4-Benzenesulfonyl-1-[5-methyl-2-(4-trifluoromethyl-phenyl)-2H-pyrazol-3-yl]-pyrrolidine-2-carboxylic acid (1-cyano-cyclopropyl)-amide] |
| 28.5 nM | 0.101 nM | N#CC1(NC(=O)[C@@H]2C[C@@H](S(=O)(=O)c3ccc(OCC(F)(F)F)cc3Cl)CN2C(=O)C2(c3ccc(Br)cc3)OCCO2)CC1 [Example 346, (2S,4R)-1-[2-(4-Bromo-phenyl)-[1,3]dioxolane-2-carbonyl]-4-[2-chloro-4-(2,2,2-trifluoro-ethoxy)-benzenesulfonyl]-pyrrolidine-2-carboxylic acid (1-cyano-cyclopropyl)-amide] |
| ≥ 25000 nM | 3.6 nM | Cc1cc(N2C[C@H](S(=O)(=O)c3ccccc3C(F)(F)F)C[C@H]2C(=O)NC2(C#N)CC2)n(-c2ccc(F)cc2)n1 [Example 195, (2S,4R)-1-[2-(4-Fluoro-phenyl)-5-methyl-2H-pyrazol-3-yl]-4-(2-trifluoromethyl-benzenesulfonyl)-pyrrolidine-2-carboxylic acid (1-cyano-cyclopropyl)-amide] |
| 2480 nM | 0.3 nM | CCN1CCN(c2ccc(S(=O)(=O)[C@@H]3C[C@@H](C(=O)NC4(C#N)CC4)N(C(=O)C4(C(F)(F)F)CC4)C3)c(Cl)c2)CC1 [Example 142, (2S,4R)-4-[2-Chloro-4-(4-ethyl-piperazin-1-yl)-benzenesulfonyl]-1-(1-trifluoromethyl-cyclopropanecarbonyl)-pyrrolidine-2-carboxylic acid (1-cyano-cyclopropyl)-amide formiate] |
| 925 nM | 0.03 nM | N#CC1(NC(=O)[C@@H]2C[C@@H](S(=O)(=O)c3ccc(OCC(F)(F)F)cc3Cl)CN2C(=O)C2(c3ccc(F)cc3)CC2)CC1 [Example 295, (2S,4R)-4-[2-Chloro-4-(2,2,2-trifluoro-ethoxy)-benzenesulfonyl]-1-[1-(4-fluoro-phenyl)-cyclopropanecarbonyl]-pyrrolidine-2-carboxylic acid (1-cyano-cyclopropyl)-amide] |
| ≥ 25000 nM | 208 nM | N#CC1(NC(=O)[C@@H]2C[C@@H](S(=O)(=O)c3ccccc3Cl)CN2)CCCCC1 [Example 46, (2S,4R)-4-(2-Chloro-benzenesulfonyl)-pyrrolidine-2-carboxylic acid (1-cyano-cyclohexyl)-amide Hydrochloride] |
| 5830 nM | 0.29 nM | N#CC1(NC(=O)[C@@H]2C[C@@H](S(=O)(=O)c3ccc(OCC(F)(F)F)cc3Cl)CN2C(=O)c2ccccc2C(F)(F)F)CC1 [Example 177, (2S,4R)-4-[2-Chloro-4-(2,2,2-trifluoro-ethoxy)-benzenesulfonyl]-1-(2-trifluoromethyl-benzoyl)-pyrrolidine-2-carboxylic acid (1-cyano-cyclopropyl)-amide] |
| ≥ 25000 nM | 84.5 nM | CC(CN1C[C@H](S(=O)(=O)c2ccccc2Cl)C[C@H]1C(=O)NC1(C#N)CC1)C(F)(F)F (stereo partly drawn) [Example 90, (2S,4R)-4-(2-Chloro-benzenesulfonyl)-1-(3,3,3-trifluoro-2-methyl-propyl)-pyrrolidine-2-carboxylic acid (1-cyano-cyclopropyl)-amide] |
